Experimental data reported in the METLIN SMRT retention time set (Domingo-Almenara et al. 2019).

Assay: gradient 5% acetonitrile 3 min, to 50% in 2 min, to 85% in 15 min, held 3 min, 100 µL/min
Conditions: column: Zorbax Extend-C18 2.1 x 50 mm; eluents: water / acetonitrile, 0.1% formic acid
Summary of the method: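 Retention times of pure standards were taken from adduct peaks that were selected by computer and manually inspected. Over 3 months, mixtures of ~100 molecules were run by HPLC–quadrupole time-of-flight mass spectrometry in positive and negative ionization mode. The Zorbax Extend-C18 column (2.1 × 50 mm, 1.8 μm) ran at 100 μL/min in water and acetonitrile, each containing 0.1% formic acid, with 40 μL dead volume and 900 μL dwell volume.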

RP-LC retention time [s]	Compound
751	Cc1cccc(C)c1NC(=O)Nc1ccc(S(N)(=O)=O)cc1
839	O=C(Nc1cccc(F)c1)C1CC(=O)N(c2ccc3c(c2)CCN3C(=O)C2CCC2)C1 (configuration not stated)
973	Cc1ccccc1CNC(=O)c1cn(-c2ccc(-c3nc(C4CC4)no3)cn2)cn1
785	COc1ccc(S(=O)(=O)N2CCCC(C(=O)NCC3CCCO3)C2)cc1Cl (configuration not stated)
605	O=C(C1CCN(c2ccc(-n3cccn3)nn2)CC1)N1CCN(c2ncccn2)CC1
925	CCCCC(=O)Nc1nc(-c2ccc3c(c2)N(C)C(=O)CO3)c(C)s1
760	CC(=O)c1cccc(NC(=O)C2CC(=O)N(c3ccc4c(c3)CCN4C(=O)C3CCC3)C2)c1 (configuration not stated)
1050	COc1ccc(-c2noc(C3CC(=O)N(c4ccc(C)c(C)c4)C3)n2)cc1 (configuration not stated)
578	CN(C)C(CNC(=O)c1ccc(Br)o1)c1cn(C)c2ccccc12 (configuration not stated)
527	Cn1ncc2c3ccccc3n(CC(=O)NCCCN3CCC(N4CCCCC4)CC3)c2c1=O
782	CN(C)S(=O)(=O)N1CCCC(c2nc(-c3ccccc3)no2)CCNC(=O)CC1 (configuration not stated)
1180	COc1ccc(Cn2c(=O)c3sccc3n(Cc3nc(-c4ccc(C)c(C)c4)no3)c2=O)cc1
978	Cc1cc(C)c(S(=O)(=O)N2CC(c3nc(-c4ccncc4)no3)C2)c(C)c1
641	Cc1cccc(NC(=O)Cn2c(C)nc(C)c(C)c2=O)c1C
1090	O=c1ccc(-c2nc(-c3ccc(F)cc3)no2)nn1Cc1cccc(F)c1
845	Cn1cc(C(=O)NCc2ccc(F)cc2)c(S(=O)(=O)N2CCSCC2)n1
674	COCC(C)(O)CNS(=O)(=O)c1ccc(F)cc1C (configuration not stated)
657	CCc1ccccc1NC(=O)NCCNC(=O)c1ccc(NC(=O)C2CC2)cc1
1110	COc1ccc(-c2nnc(-c3cccc(S(=O)(=O)N4CCC(C)CC4)c3)o2)cc1
653	Cc1cc(N2CCN([C@@H]3CN[C@H](C(=O)N4CCSC4)C3)CC2)n(-c2ccccc2)n1
851	Cc1nc(-c2ccncc2)nc2c1CCC(=O)N2C1CCCCC1
948	COc1ccc(-c2ncc3c(n2)CCN(C(=O)c2ccccc2Br)C3)cc1

RP-LC retention time [s]	Compound
1290	O=C(NC1CCCCCC1)C1CCCN(c2nc3ccccc3n(Cc3ccccc3)c2=O)C1 (configuration not stated)
729	COc1ccc(-c2cc(C(N)=O)c(C)n2C)cc1
883	CCS(=O)(=O)c1ccc2c(c1)N(Cc1nc(-c3cccc(OC)c3)no1)C(=O)CO2
1010	O=C(NCc1ccc2c(c1)OCO2)c1nn(-c2ccc(Cl)cc2)nc1CO
769	Cc1oc(C2CCN(C(=O)c3cc(F)ccc3F)CC2)nc1C(=O)N1CCCC1
607	COc1ccc(CN2CCC3(CC2)CC(C)(O)CCO3)c(OC)c1 (configuration not stated)
882	COc1ccc(CN2CC3(CCN(S(=O)(=O)Cc4ccccc4)CC3)C2=O)cc1
884	CCn1nccc1-c1cccc(-c2noc(CNS(=O)(=O)c3ccccc3)n2)c1
641	O=c1oc2cc(O)c(O)cc2c2c1CCC2
746	COc1ccc2c(C)c(CCC(=O)N[C@@H](C(=O)O)C(C)C)c(=O)oc2c1C
727	COc1ccc(OC)c(Nc2c(-c3cccc(O)c3)nc3cnccn23)c1
1090	COc1ccc(OC)c(C(O)Cn2ccn3nc(-c4ccc(C(C)C)cc4)cc3c2=O)c1 (configuration not stated)
819	Cc1cc(-c2ccc(C(C)C)c(S(=O)(=O)N3CCN(c4ccccn4)CC3)c2)on1
705	CN1c2ccccc2C(=O)NC12CCN(C(=O)NCc1ccccc1)CC2
786	Cc1cc(C(=O)N2c3ccccc3CC2c2nnc(C3CC3)o2)nn1C (configuration not stated)
783	O=c1n(Cc2ccc3c(c2)OCO3)nc2c(S(=O)(=O)N3CCCC3)cccn12
733	CC(C)C(=O)N1CCCC1c1nc(CCOCC2CC2)no1 (configuration not stated)
888	Cc1ccc(-c2nc(C)c(C(=O)NC3CC3)s2)cc1
1030	CC1CCN(c2cnn(CC(=O)Nc3ccc4c(c3)CCC4)c(=O)c2Cl)CC1
792	Cc1ccc(-c2cc3c(=O)n(Cc4noc(CN5CCOCC5)n4)ccn3n2)c(C)c1
1020	CCc1ccc(S(=O)(=O)NCc2c(-c3ccccc3)nc3sc(CC)nn23)cc1
856	COCCN1C(=O)c2ccccc2C(C(=O)NCc2ccccc2)C12CCCCC2 (configuration not stated)

RP-LC retention time [s]	Compound
718	CCOC(=O)c1c(S(=O)(=O)NCc2ccc3c(c2)OCO3)n[nH]c1CC
1230	CCn1c(=O)c(N2CCCC(C(=O)N3CCN(c4ccc(Cl)cc4)CC3)C2)nc2ccccc21 (configuration not stated)
682	COCC(=O)Nc1ccc2nc(-c3ccc(F)cc3)cc(OCC(=O)OC)c2c1
867	Cn1cc(-c2ccc3c(c2)CCN3C(=O)Cc2cccc(C(F)(F)F)c2)c2c(N)ncnc21
615	CCOCCCNC(=O)CCc1cc2cc(OC)ccc2[nH]c1=O
768	CCc1csc(-c2cn(CC(=O)NCc3cccc(C(F)(F)F)c3)cn2)n1
1040	Cc1cc(NC(=O)C2CCN(S(C)(=O)=O)c3ccccc3O2)ccc1Br (configuration not stated)
626	CN(C)CCNC(=O)c1nc2ccccn2c1-c1ccc(Cl)cc1
812	CCOc1ncccc1CNC(=O)CC1CCCC1
863	CCc1ccc(NC(=O)Cn2ncn3c(C)c(C(=O)NCc4ccccc4)c(C)c3c2=O)cc1
752	O=C(c1ccc([N+](=O)[O-])o1)N1CCN(C(=O)C2CC2c2cccs2)CC1 (configuration not stated)
800	CCn1ncc(NC(=O)CCc2ccccc2)c(N2CCOCC2)c1=O
682	CCn1cc(-c2ccncc2)cc1C(=O)NCc1ccccc1Br
572	CCNc1cc(N2CCC(CCC(=O)NCCN3CCc4ccccc4C3)CC2)ncn1
767	COc1cc(NC(=O)[C@@H]2[C@H](c3cc(OC)c(OC)c(OC)c3)c3cc4c(cc3[C@H](O)[C@H]2CO)OCO4)cc(OC)c1
834	O=C(NC1CC1)[C@@H]1C[C@H](Oc2ccccc2)CN1C(=O)CCCc1c[nH]c2ccccc12
765	Clc1cccc(CSc2ncnc3nc[nH]c23)c1
884	CC(C)CCNC(=O)C1CCCN(c2nc3ccsc3c(=O)n2-c2ccc(F)cc2)C1 (configuration not stated)
854	O=C(Nc1ccc2c(c1)OCO2)c1nnc(C2CCCN2C(=O)NCc2ccc(F)cc2)s1 (configuration not stated)
903	O=C(O)c1cc2cc(OCc3ccccc3)ccc2[nH]1
854	Cc1ccc(CNC(=O)C2(C)CN(S(C)(=O)=O)CC(=O)N2c2cccc(Cl)c2)cc1 (configuration not stated)
741	CC(=O)NC(CCS(C)(=O)=O)C(=O)Nc1ccc(-c2nc3ccc(C)cc3s2)cc1 (configuration not stated)

RP-LC retention time [s]	Compound
757	O=C(NCc1nc2cccnc2n1Cc1ccc(F)cc1)c1ccc(Br)o1
1200	CC(NC(=O)c1ccco1)c1nc(-c2ccc(-c3csc(-c4ccccc4)n3)cc2)no1 (configuration not stated)
791	COc1ccc(Cl)cc1S(=O)(=O)N1CCC(OC2CCN(C)CC2)CC1
705	Cc1noc(-c2ccc(SCC(=O)Nc3ccc(S(N)(=O)=O)cc3)nc2)n1
762	Cc1noc(-c2cccc(OC3CN(C(=O)CN4C(=O)CCC4=O)C3)c2)n1
737	O=C(Nc1cnn(-c2ncc(N3CCSCC3)cn2)c1)C1CCCC1
963	CCOc1ccc(NC(=O)C2CCN(S(=O)(=O)c3c(C)nn(-c4ccccc4)c3C)CC2)cc1
959	CN1C(=O)c2cc(S(=O)(=O)NCc3ccccc3)ccc2Oc2cccnc21
858	COc1ccc(-c2noc(C3CCCN3C(=O)Nc3cccc(C)c3C)n2)cc1 (configuration not stated)
630	CCN1CCC2(CC1)OC(=O)C(C)=C2C(=O)NCC(C)c1ccccc1 (configuration not stated)
586	OCCc1nc2ccccc2n1C/C=C/c1ccccc1
859	Cc1nc(S(=O)(=O)N2CCC(C(=O)N3CCN(c4ccc(Cl)cc4)CC3)CC2)cn1C
594	Cn1nc(-c2nc(-c3ccccc3F)no2)c2c1CCN(C(=O)NC(C)(C)C)C2
585	CCC(=O)N1CCc2cc(N3CC(C(=O)NC(C)c4ccccn4)CC3=O)ccc21 (configuration not stated)
1260	O=C(Nc1cc(F)ccc1F)c1c(O)c2cccnc2n(-c2cccc(F)c2)c1=O
955	O=C(CCc1nnc2c3cc(-c4ccc(Cl)cc4)nn3ccn12)N1CCN(c2ccccn2)CC1
695	O=C(CC1CCN(C(=O)NC2CCCC2)CC1)N1CCCCC1
1040	CC(C)c1cc(C(=O)Nc2ccc(F)c(F)c2)no1
840	O=C(c1ccco1)N1CCN(c2ncnc3sc(-c4ccccc4)cc23)CC1

Compound	RP-LC retention time [s]
CC(C)[C@H]1C(=O)O[C@@H]2CCN3CC=C(COC(=O)[C@](C)(O)[C@]1(C)O)[C@H]23	584
Cc1cc(OCC(=O)N[C@H](C(=O)O)C(C)C)c2c3c(c(=O)oc2c1)CCCC3	837
